# Test results taken from PubChem BioAssay (NCI).
#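 Cells were grown in 96-well plates and exposed to each compound for 48 hours at five concentrations; endpoints were interpolated linearly between bracketing concentrations, or set to the highest concentration if not reached. TGI: total growth inhibition.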
# How the values were obtained:
# Test in all cases: growth of human tumour cells (NCI), 48 h
# HCC-2998 colon = tested on: HCC-2998 colon
# RXF 393 renal = tested on: RXF 393 renal
# MDA-MB-435 = tested on: MDA-MB-435
# LOX IMVI melanoma = tested on: LOX IMVI melanoma
# NCI-H226 lung = tested on: NCI-H226 lung
# HS 578T breast = tested on: HS 578T breast
# KM12 colon = tested on: KM12 colon
# SK-MEL-28 melanoma = tested on: SK-MEL-28 melanoma
# UO-31 renal = tested on: UO-31 renal
# SF-268 CNS = tested on: SF-268 CNS
# MOLT-4 leukemia = tested on: MOLT-4 leukemia
# NCI-H522 lung = tested on: NCI-H522 lung
# HT29 colon = tested on: HT29 colon
# RPMI-8226 leukemia = tested on: RPMI-8226 leukemia
Compound,TGI (HCC-2998 colon),TGI (RXF 393 renal),TGI (MDA-MB-435),TGI (LOX IMVI melanoma),TGI (NCI-H226 lung),TGI (HS 578T breast),TGI (KM12 colon),TGI (SK-MEL-28 melanoma),TGI (UO-31 renal),TGI (SF-268 CNS),TGI (MOLT-4 leukemia),TGI (NCI-H522 lung),TGI (HT29 colon),TGI (RPMI-8226 leukemia)
CC1C(c2ccccc2O)c2cc3c(cc2OC1N1CCCC1)OCO3 (stereo not given),> 100 µM,31.8 µM,81.9 µM,44.3 µM,> 100 µM,43.3 µM,> 100 µM,46.6 µM,> 100 µM,> 100 µM,65 µM,70.3 µM,30.8 µM,57.5 µM
O=S(=O)(Nc1ccccc1S(=O)(=O)c1ccccc1)c1ccccc1,> 100 µM,> 100 µM,> 100 µM,> 100 µM,> 100 µM,> 100 µM,> 100 µM,> 100 µM,> 100 µM,> 100 µM,> 100 µM,> 100 µM,> 100 µM,> 100 µM
O=C(O)/C(=C\c1ccccc1)Cc1ccccc1,> 100 µM,> 100 µM,> 100 µM,> 100 µM,> 100 µM,> 100 µM,> 100 µM,> 100 µM,> 100 µM,> 100 µM,> 100 µM,> 100 µM,> 100 µM,> 100 µM
COc1cc2c(cc1OC)-c1cc3ccccc3c(=O)n1CCC2,> 64.3 µM,57.5 µM,> 53.7 µM,13.7 µM,70.5 µM,> 100 µM,38 µM,> 73.6 µM,61.1 µM,> 100 µM,10.4 µM,74.9 µM,41.2 µM,29.4 µM
O=C1c2c(Br)sc(Br)c2[C@H]2NC(=S)O[C@@H]12,34.8 µM,27.9 µM,29.1 µM,30.5 µM,42.9 µM,60 µM,38.1 µM,29.6 µM,29.8 µM,30.2 µM,5.31 µM,3.74 µM,33.5 µM,45.5 µM
COc1cc(CNC(=O)CCCCCCCC/C=C/Br)ccc1O,> 10 µM,> 10 µM,> 10 µM,> 10 µM,> 10 µM,> 10 µM,> 10 µM,> 10 µM,> 10 µM,> 10 µM,> 10 µM,> 10 µM,> 10 µM,> 10 µM
COC(=O)[C@]1(c2cc3ccccc3[nH]2)CC2CN(CC(=O)N(C)OC)C1C1OC(C)(C)OC21 (stereo not given in full),> 100 µM,> 100 µM,> 100 µM,> 100 µM,> 100 µM,> 100 µM,> 100 µM,> 100 µM,> 100 µM,> 100 µM,49.9 µM,> 100 µM,> 100 µM,74 µM
O=[N+]([O-])C(=C1Nc2ccccc2N1)C(Cl)=C(Cl)Cl,> 100 µM,> 100 µM,> 100 µM,> 100 µM,> 100 µM,> 100 µM,> 100 µM,> 100 µM,> 100 µM,> 100 µM,56.3 µM,> 100 µM,> 100 µM,> 100 µM
CC[C@H](CCCCC1CC[C@@H]2CC(=O)C[C@H]12)OC (stereo not given in full),> 100 µM,> 100 µM,> 100 µM,> 100 µM,> 100 µM,> 100 µM,> 100 µM,> 100 µM,> 100 µM,> 100 µM,> 100 µM,> 100 µM,> 100 µM,> 100 µM
COC(=O)c1ccccc1CC1Cc2cc3c(cc2C1)CCC3,> 100 µM,63.6 µM,84.2 µM,47.8 µM,> 100 µM,> 100 µM,71.1 µM,> 100 µM,> 100 µM,> 100 µM,38.8 µM,91.6 µM,> 100 µM,40.1 µM
